Patent publication US7462598B2, “Antimicrobial theta defensins, analogs thereof, and methods of use” (priority 2002, dated 2008)
Bridge positions count the residues as written; N and C are the ends. Peptide text beside a SMILES is read from it.

Columns and labels:
S. aureus 502a [1] = assay: Cell-suspension microbicidal assay (MMC); type: cell-based, Staphylococcus aureus; conditions: for MMC, S. aureus: lowest concentration that reduced cell viability by 99.9%, 10 mM PIPES, 5 mM glucose, pH 7.4, 2 h 37° C.
Experimental: (§1) To test microbicidal activities, the activities of each peptide against S. aureus 502a, E. coli ML35, and C. albicans 16820 were assessed essentially as described in Example I with modifications to allow for simultaneous analysis of all twenty peptides. Briefly, two-fold serial dilutions of each peptide (in 0.01% acetic acid 0.062-8.0 μg/ml final concentrations) were mixed with 10 mM PIPES, pH 7.4, containing 5 mM glucose in sterile polystyrene 96-well plates (Corning, N.Y.). Aliquots of log-phase bacteria or yeast were added to a 2×10^6 CFU/ml final density as determined by A620. After 2 h incubation at 37° C., 15 μl of the incubation mixture was removed and serially diluted ten-fold from 1:10 to 1:10^6 in trypticase soy broth (bacteria) or Sabaraud dextrose broth (C. albicans). The diluted cell suspensions were grown 24-48 h at 37° C. until cell pellets were visible. Microbicidal activity was determined as absence of growth and was correlated to CFU/ml in control experiments where activity was determined in parallel by colony counting (see Example I). Absence of growth at the 1:10^3 dilution is equivalent to a 3-log reduction in microbial viability.
(§2) The microbicidal activities of each peptide against E. coli ML35, S. aureus 502a, and C. albicans 16820 were determined with cell-suspension microbicidal assays in 96-well plates (see Example II). Briefly, log-phase cells (2×10^6 CFU/ml final) were incubated with increasing concentrations of peptides (0-8 μg/ml final) in 50 μl of 10 mM PIPES, 5 mM glucose, pH 7.4, for 2 h at 37° C. Incubation mixtures were diluted 1:10 to 1:10^6 with trypticase-soy broth (bacteria) or Sabaraud dextrose broth (fungi) and incubated at 37° C. for 24-48 h until cell pellets were visible. Microbicidal activities (confirmed in control experiments as described in Example II) were determined as the absence of a cell pellet in the various dilutions. Peptide concentrations that caused ≧99.9% killing (absence of a cell pellet at 1:10^3 dilution) were taken as the minimum microbicidal concentrations (MMC).

E. coli ML35 [2] = assay: Membrane permeabilization assay (ONPG hydrolysis); type: cell-based, Escherichia coli; conditions: rates at 1 μg/ml concentration of each peptide
Experimental: For the membrane permeabilization assay, the permeabilization of bacterial cytoplasmic membranes was determined by measuring hydrolysis of o-nitrophenyl-β-D-galactcpyranoside (ONPG) in E. coli ML35 (Sitaram et al., FEBS Lett. 303:265-268 (1992); Lehrer et al.,. J. Immunol. Methods 108:153-158 (1988)). Peptides dissolved in 5 μl of 0.01% acetic acid were two-fold serially diluted with 10 mM PIPES, pH 7.4, containing 3 mM ONPG, to final peptide concentrations of 0-8.0 μg/ml. Log-phase bacteria, prepared in PIPES buffer as described for the microbicidal assay (see Example I), were added to 1×10^6 CFU/ml final density in a final volume of 90 μl. ONPG hydrolysis was measured at 405 nm for 60 min using a SpectraMAX 190 plate reader and SOFTmaxPRO 3.1 (Molecular Devices Corp., CA). […]

S. aureus 502a [3] = type: cell-based, Staphylococcus aureus; conditions: 10% normal human serum; FIG. 7
Experimental: Dose-dependent staphylocidal activity of each peptide was determined in assays containing 10% normal human serum. Percentages of killing are relative to activities of peptide-containing incubations in which serum was omitted.
To determine the effects of serum, salt, calcium chloride and magnesium chloride on microbicidal activities, peptide activities were determined in assays containing varying ionic strength, divalent cations, and serum. The effect of serum on staphylocidal activity of each peptide was determined by incubating 1×10^6 CFU/ml of S. aureus 502a with increasing peptide concentrations (0.5-4 μg/ml) in 10 mM PIPES, pH 7.4, containing 10% normal human serum for 2 h at 37° C. The effect of sodium chloride on staphylocidal activities was assessed with 5 μg/ml of each peptide in 10 mM PIPES, pH 7.4, containing varying concentrations of sodium chloride (0-160 mM). Effects of divalent cations, CaCl2, or MgCl2 (0-5.6 mM) were assessed in microbicidal assays against E. coli ML35. Bactericidal activities were determined by colony counting (see Example II), and microbicidal potencies were expressed as percent killing as follows:
[formula] where A=surviving bacteria (CFU/ml) after initial incubation with each peptide in buffer containing serum, salt, or divalent cations and Ao=bacterial CFU/ml in the “no-peptide” controls.

[4] = test system: S. aureus 502a, E. coli ML35, and C. albicans 16820; assay: Cell-suspension microbicidal assay, statements across the test organisms (lowest MMC, overall ranges); type: cell-based; conditions: peptide concentration that kill 99.9% of either S. aureus, E. coli, or C. albicans; lowest MMC value
Experimental: as §1, §2
(§3) A selectivity index (SI=H/M) was calculated as a ratio of a peptide concentration (μg/ml) that causes 3% hemolysis (H) obtained from a dose-dependent hemolysis plot over 0.3 to 3 μg/ml of each peptide in PBS and the lowest MMC value (M) for any of the three test microorganisms (see Example II; Table 2).

C. albicans 16820 = assay: Cell-suspension microbicidal assay (MMC); type: cell-based, Candida albicans; conditions: for MMC, C. albicans: lowest concentration that reduced cell viability by 99.9%, 10 mM PIPES, 5 mM glucose, pH 7.4, 2 h 37° C.
Experimental: as §1, §2

white blood cells = assay: Cytokine-antibody array of supernatants of white blood cells (ex vivo LPS model); type: cell-based; conditions: 18 h, relative to control supernatants
Experimental: The anti-inflammatory properties of RTD-1 were evaluated by determining the relative levels of cytokines produced by stimulated white blood cells. Blood was obtained from healthy donors in accordance with institutional guidelines. Serum was prepared from the same donor following coagulation and high-speed centrifugation (12,000-15,000 ×g). White blood cells, (WBC) were prepared from EDTA anti-coagulated blood using an established protocol. WBC were suspended in RPMI 1640 (Gibco; Invitrogen, Carlsbad Calif.) containing 10% FBS and 1% autologous serum. Aliquots containing 2×10^6 cells were added to each well of a sterile 12-well plate, and cells were allowed to incubate for 18 h at 37° C. in a humidified incubator with 5% carbon dioxide. […] Cell-free supernatants were collected by centrifugation at 12,000×g and incubated with cytokine-antibody arrays per the manufacturer's protocol (RayBiotech; Norcross Ga.). The cytokines on each array were visualized with a chemi-luminescent kit (Pierce; Rockford Ill.) and enumerated by spot density analysis with ChemiImager 5.5 (Alpha Innotech; San Leandro Calif.).

E. coli ML35 [5] = assay: Cell-suspension microbicidal assay (MMC); type: cell-based, Escherichia coli; conditions: lowest concentration that reduced cell viability by 99.9%; 10 mM PIPES, 5 mM glucose, pH 7.4; 2 h 37° C.
Experimental: as §1, §2

human erythrocytes = assay: Hemolysis assay; type: cell-based
Experimental: For the hemolysis assay, the hemolytic activity of each peptide was determined by the method of Tam et al. (Tam et al., Eur. J. Biochem. 267:3289-3300 (2000)). Blood was obtained from a healthy donor in accordance to a protocol approved by the Institutional Review Board. Normal human serum was prepared from the same individual and stored at −20° C. Red blood cells (RBC) were prepared from blood collected in EDTA. RBC were harvested at 234×g for 10 min, 22° C., washed four times with 10 mM sodium phosphate, 150 mM NaCl, pH 7.4 (PBS), containing 4 mM EDTA and resuspended in PBS without EDTA. Peptides dissolved in 10 μl 0.01% HOAc were diluted with PBS to final concentrations of 0.3-100 μg/ml. RBC were added to a 2% final density in 100 μl. Incubation mixtures were also prepared with 10% serum. After 1 h incubation at 37° C., the cell suspensions were centrifuged at 234×g for 10 min, 22° C. Fifty-μl samples of the supernatants were removed, and the absorbance at 405 nm (A) was measured. Hemolytic activity of each peptide was calculated relative to lysis by 1% NP-40 using the following formula:
as §3

[6] = LPS (100 ng/ml) + RTD-1 (100 ng/ml)

CC(C)C[C@H](NC(=O)[C@H](CCCNC(=N)N)NC(=O)CNC(=O)CNC(=O)[C@@H](N)CCCNC(=N)N)C(=O)N[C@H]1CSSC[C@@H](C(=O)N[C@H](C(=O)NCC(=O)N[C@@H](CCCNC(=N)N)C(N)=O)C(C)C)NC(=O)[C@H](C(C)C)NC(=O)[C@@H]2CSSC[C@H](NC(=O)[C@H](Cc3ccc(O)cc3)NC1=O)C(=O)N[C@@H](CCCNC(=N)N)C(=O)N[C@@H](CCCNC(=N)N)C(=O)N[C@@H](CCCNC(=N)N)C(=O)N[C@@H](Cc1ccccc1)C(=O)N2 [PG-1, reference compound]
MMC, S. aureus (S. aureus 502a [1]): 0.4 µg/mL | ONPG hydrolysis (E. coli ML35 [2]): 11.3 (A405/sec) · 10^−5 | staphylocidal activity in assay containing serum (in words) (S. aureus 502a [3]): unaffected | M [4]: 0.38 µg/mL | MMC, C. albicans (C. albicans 16820): 0.8 µg/mL

CC[C@H](C)[C@@H]1NC(=O)[C@@H]2CSSC[C@H](NC(=O)[C@H](CCCNC(=N)N)NC(=O)[C@@H]3CSSC[C@H](NC1=O)C(=O)N[C@@H]([C@@H](C)O)C(=O)N[C@@H](CCCNC(=N)N)C(=O)NCC(=O)N[C@@H](Cc1ccccc1)C(=O)N3)C(=O)N[C@@H](CC(C)C)C(=O)N[C@H]1CSSC[C@H](NC(=O)[C@H](C(C)C)NC(=O)CNC(=O)[C@H](CCCNC(=N)N)NC(=O)[C@H](CCCNC(=N)N)NC1=O)C(=O)N[C@@H](CCCNC(=N)N)C(=O)N2 [RTD-1] (cyclo(GFCRCLCRRGVCRCICTR); disulfide 3-16, 5-14, 7-12)
MMC, S. aureus (S. aureus 502a [1]): 1.0 µg/mL | ENA-78 fold increase (white blood cells; [6]): 10 fold | GCSF fold increase (white blood cells; [6]): 1 fold | GM-CSF fold increase (white blood cells; [6]): 1 fold | GRO fold increase (white blood cells; [6]): 19 fold | IFN-γ fold increase (white blood cells; [6]): 60 fold | IL-1β fold increase (white blood cells; [6]): 118 fold | IL-2 fold increase (white blood cells; [6]): 1 fold | IL-5 fold increase (white blood cells; [6]): 118 fold | IL-6 fold increase (white blood cells; [6]): 2 fold | IL-7 fold increase (white blood cells; [6]): 1 fold | IL-10 fold increase (white blood cells; [6]): 2 fold | MCP-2 fold increase (white blood cells; [6]): 4 fold | MCSF fold increase (white blood cells; [6]): 1 fold | MDC fold increase (white blood cells; [6]): 4 fold | MIP-1-δ fold increase (white blood cells; [6]): 1 fold | RANTES fold increase (white blood cells; [6]): 237 fold | SCF fold increase (white blood cells; [6]): 1 fold | SDF-1 fold increase (white blood cells; [6]): 178 fold | TARC fold increase (white blood cells; [6]): 60 fold | TGF-β1 fold increase (white blood cells; [6]): 1 fold | TNF-α fold increase (white blood cells; [6]): 1 fold | ENA-78 fold increase (white blood cells; stimulus alone, 100 ng/ml): 1 fold | GCSF fold increase (white blood cells; stimulus alone, 100 ng/ml): 1 fold | GM-CSF fold increase (white blood cells; stimulus alone, 100 ng/ml): 1 fold | GRO fold increase (white blood cells; stimulus alone, 100 ng/ml): 4 fold | IFN-γ fold increase (white blood cells; stimulus alone, 100 ng/ml): 1 fold | IL-1β fold increase (white blood cells; stimulus alone, 100 ng/ml): 178 fold | IL-2 fold increase (white blood cells; stimulus alone, 100 ng/ml): 1 fold | IL-5 fold increase (white blood cells; stimulus alone, 100 ng/ml): 60 fold | IL-6 fold increase (white blood cells; stimulus alone, 100 ng/ml): 2 fold | IL-7 fold increase (white blood cells; stimulus alone, 100 ng/ml): 1 fold | IL-10 fold increase (white blood cells; stimulus alone, 100 ng/ml): 1 fold | MCP-2 fold increase (white blood cells; stimulus alone, 100 ng/ml): 2 fold | MCSF fold increase (white blood cells; stimulus alone, 100 ng/ml): 60 fold | MDC fold increase (white blood cells; stimulus alone, 100 ng/ml): 2 fold | MIP-1-δ fold increase (white blood cells; stimulus alone, 100 ng/ml): 1 fold | RANTES fold increase (white blood cells; stimulus alone, 100 ng/ml): 1 fold | SCF fold increase (white blood cells; stimulus alone, 100 ng/ml): 1 fold | SDF-1 fold increase (white blood cells; stimulus alone, 100 ng/ml): 1 fold | TARC fold increase (white blood cells; stimulus alone, 100 ng/ml): 1 fold | TGF-β1 fold increase (white blood cells; stimulus alone, 100 ng/ml): 1 fold | TNF-α fold increase (white blood cells; stimulus alone, 100 ng/ml): 1 fold | ONPG hydrolysis (E. coli ML35 [2]): 9.0 (A405/sec) · 10^−5 | MMC, E. coli (E. coli ML35 [5]): 2.0 µg/mL | M [4]: 1 µg/mL | H (human erythrocytes; peptide concentration that causes 3% hemolysis, calculated from dose-dependent hemolysis plot over 0.3-3 μg/ml in PBS): 5.5 µg/mL | MMC, C. albicans (C. albicans 16820): 1.0 µg/mL

CC(C)C[C@@H]1NC(=O)[C@H](CCCNC(=N)N)NC(=O)CNC(=O)CNC(=O)[C@H](CCCNC(=N)N)NC(=O)[C@H](CCCNC(=N)N)NC(=O)CNC(=O)[C@H](C(C)C)NC(=O)[C@@H]2CSSC[C@H](NC1=O)C(=O)N[C@@H](Cc1ccc(O)cc1)C(=O)N[C@H]1CSSC[C@H](NC(=O)[C@H](Cc3ccccc3)NC(=O)[C@H](CCCNC(=N)N)NC(=O)[C@H](CCCNC(=N)N)NC(=O)[C@H](CCCNC(=N)N)NC1=O)C(=O)N[C@@H](C(C)C)C(=O)N2 [cPG-1] (cyclo(GGRLCYCRRRFCVCVGRR); disulfide 5-14, 7-12)
fold lower staphylocidal potency than native PG-1 (S. aureus 502a [1]; from MMC, Table 2): 5 fold | MMC, S. aureus (S. aureus 502a [1]): 2.0 µg/mL | ONPG hydrolysis (E. coli ML35 [2]): 11.0 (A405/sec) · 10^−5 | MMC, E. coli (E. coli ML35 [5]): 1.0 µg/mL | M [4]: 1 µg/mL | hemolysis (human erythrocytes): 40-50% | fold lower candidacidal potency than native PG-1 (C. albicans 16820; from MMC, Table 2): 3 fold | MMC, C. albicans (C. albicans 16820): 2.5 µg/mL
